Measurements reported in PubChem BioAssay (NCI).
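Five compound concentrations were applied to cells in 96-well plates for 48 hours; endpoints were derived by simple linear interpolation of the resulting dose-response curve. TGI: total growth inhibition.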

Tests used:
Test in all cases: NCI-60 cell line screen, 48 h
[1] = test system: K-562 leukemia
[2] = test system: U251 CNS
[3] = test system: SK-OV-3 ovarian
[4] = test system: HL-60(TB) leukemia
[5] = test system: BT-549 breast
[6] = test system: KM12 colon
[7] = test system: SK-MEL-5 melanoma
[8] = test system: NCI/ADR-RES ovarian
[9] = test system: M14 melanoma
[10] = test system: T-47D breast
[11] = test system: CAKI-1 renal
[12] = test system: SNB-19 CNS
[13] = test system: HOP-92 NSCLC
[14] = test system: A549 NSCLC
[15] = test system: SF-295 CNS
[16] = test system: HCT-116 colon
[17] = test system: DU-145 prostate
[18] = test system: MOLT-4 leukemia
[19] = test system: HCC-2998 colon
[20] = test system: SK-MEL-28 melanoma
[21] = test system: IGROV1 ovarian
[22] = test system: OVCAR-4 ovarian
[23] = test system: HS 578T breast
[24] = test system: NCI-H460 lung
[25] = test system: NCI-H23 lung
[26] = test system: MDA-N
[27] = test system: EKVX NSCLC
[28] = test system: COLO 205 colon
[29] = test system: PC-3 prostate
[30] = test system: UACC-257 melanoma
[31] = test system: SK-MEL-2 melanoma
[32] = test system: UO-31 renal
[33] = test system: SF-539 CNS
[34] = test system: SN12C renal
[35] = test system: RPMI-8226 leukemia
[36] = test system: NCI-H522 lung
[37] = test system: MCF7 breast
[38] = test system: HOP-62 NSCLC
[39] = test system: UACC-62 melanoma
[40] = test system: SF-268 CNS
[41] = test system: SNB-75 CNS
[42] = test system: CCRF-CEM leukemia
[43] = test system: TK-10 renal
[44] = test system: 786-0 renal
[45] = test system: OVCAR-8 ovarian
[46] = test system: MDA-MB-231 breast
[47] = test system: LOX IMVI melanoma
[48] = test system: ACHN renal
[49] = test system: OVCAR-3 ovarian
[50] = test system: SR leukemia
[51] = test system: HT29 colon
[52] = test system: OVCAR-5 ovarian
[53] = test system: SW-620 colon
[54] = test system: NCI-H226 lung
[55] = test system: MALME-3M melanoma
[56] = test system: RXF 393 renal
[57] = test system: MDA-MB-435
[58] = test system: A498 renal
[59] = test system: HCT-15 colon

O=C1CCCC/C1=C\c1ccc([N+](=O)[O-])cc1 showed a TGI [1] of 32.1 µM, a TGI [2] of 29.6 µM and a TGI [3] of 30.9 µM. The TGI [4] was greater than 100 µM, the TGI [5] was 59.3 µM and the TGI [6] was 38.4 µM. The TGI [7] was greater than 100 µM, the TGI [8] was 57.1 µM and the TGI [9] was 40.8 µM. For the same molecule, the TGI [10] was 65.3 µM, the TGI [11] was 35.7 µM and the TGI [12] was 32.5 µM. For the same molecule, the TGI [13] was 52.1 µM, the TGI [14] was 95.9 µM and the TGI [15] was 51 µM. For the same molecule, the TGI [16] was 25.7 µM, the TGI [17] was greater than 100 µM and the TGI [18] was 30.4 µM. For the same molecule, the TGI [19] was 27.2 µM, the TGI [20] was 23.5 µM and the TGI [21] was 32.1 µM. For the same molecule, the TGI [22] was 53.1 µM, the TGI [23] was 70.8 µM and the TGI [24] was greater than 100 µM. It also gave a TGI [25] of 54.8 µM, a TGI [26] of 41.5 µM and a TGI [27] greater than 100 µM. The TGI [28] was 32.3 µM, the TGI [29] was 4.46 µM and the TGI [30] was 38.5 µM. The TGI [31] was 46 µM, the TGI [32] was 36.3 µM and the TGI [33] was 43.3 µM. The TGI [34] was 30.9 µM, the TGI [35] was 44.3 µM and the TGI [36] was 30.2 µM. The TGI [37] was 37.4 µM, the TGI [38] was 29 µM and the TGI [39] was 30.7 µM. The TGI [40] was greater than 100 µM, the TGI [41] was 46 µM and the TGI [42] was 30.4 µM. It also gave a TGI [43] of 26.3 µM, a TGI [44] of 28.1 µM and a TGI [45] of 37.1 µM. For the same molecule, the TGI [46] was 52.6 µM, the TGI [47] was 3.74 µM and the TGI [48] was 68.1 µM. The TGI [49] was 83.5 µM, the TGI [50] was greater than 100 µM and the TGI [51] was greater than 100 µM. The TGI [52] was greater than 100 µM.

With CC(=O)NC1(NC(C)=O)C2CC(C1Cc1ccccc1)C(C)(C)C2C (stereo unspecified) the TGI [1] was greater than 100 µM, the TGI [53] was greater than 100 µM and the TGI [2] was greater than 100 µM. For the same molecule, the TGI [3] was greater than 100 µM, the TGI [4] was greater than 100 µM and the TGI [5] was greater than 100 µM. For the same molecule, the TGI [6] was greater than 100 µM, the TGI [7] was greater than 100 µM and the TGI [54] was greater than 100 µM. It also gave a TGI [9] greater than 100 µM, a TGI [10] greater than 100 µM and a TGI [11] greater than 100 µM. For the same molecule, the TGI [12] was greater than 100 µM, the TGI [13] was greater than 100 µM and the TGI [14] was greater than 100 µM. It also gave a TGI [15] greater than 100 µM, a TGI [16] greater than 100 µM and a TGI [17] greater than 100 µM. The TGI [18] was greater than 100 µM, the TGI [19] was greater than 100 µM and the TGI [20] was greater than 100 µM. It also gave a TGI [21] greater than 100 µM, a TGI [22] greater than 100 µM and a TGI [55] greater than 100 µM. The TGI [23] was greater than 100 µM, the TGI [24] was greater than 100 µM and the TGI [25] was greater than 100 µM. It also gave a TGI [26] greater than 100 µM, a TGI [27] greater than 100 µM and a TGI [28] greater than 100 µM. The TGI [56] was greater than 100 µM, the TGI [29] was greater than 100 µM and the TGI [30] was greater than 100 µM. For the same molecule, the TGI [32] was greater than 100 µM, the TGI [33] was greater than 100 µM and the TGI [34] was greater than 100 µM. It also gave a TGI [57] greater than 100 µM, a TGI [36] greater than 100 µM and a TGI [37] greater than 100 µM. It also gave a TGI [58] greater than 100 µM, a TGI [38] greater than 100 µM and a TGI [39] greater than 100 µM. For the same molecule, the TGI [40] was greater than 100 µM, the TGI [41] was greater than 100 µM and the TGI [42] was greater than 100 µM. It also gave a TGI [43] greater than 100 µM, a TGI [44] greater than 100 µM and a TGI [45] greater than 100 µM. It also gave a TGI [46] greater than 100 µM, a TGI [48] greater than 100 µM and a TGI [49] greater than 100 µM. For the same molecule, the TGI [50] was greater than 100 µM, the TGI [51] was greater than 100 µM and the TGI [52] was greater than 100 µM.

CC(=O)C(C)C(=O)N1C(=O)N(C)C2(C)N(C)C(=O)NC12C (stereo unspecified) gave a TGI [2] greater than 100 µM, a TGI [3] greater than 100 µM and a TGI [4] greater than 100 µM. For the same molecule, the TGI [5] was greater than 100 µM, the TGI [6] was greater than 100 µM and the TGI [7] was greater than 100 µM. For the same molecule, the TGI [8] was greater than 100 µM, the TGI [9] was greater than 100 µM and the TGI [59] was greater than 100 µM. It also gave a TGI [11] greater than 100 µM, a TGI [12] greater than 100 µM and a TGI [13] greater than 100 µM. For the same molecule, the TGI [14] was greater than 100 µM, the TGI [15] was greater than 100 µM and the TGI [16] was greater than 100 µM. The TGI [17] was greater than 100 µM, the TGI [19] was greater than 100 µM and the TGI [20] was greater than 100 µM. For the same molecule, the TGI [21] was greater than 100 µM, the TGI [22] was greater than 100 µM and the TGI [55] was greater than 100 µM. For the same molecule, the TGI [23] was greater than 100 µM, the TGI [24] was greater than 100 µM and the TGI [25] was greater than 100 µM. The TGI [26] was greater than 100 µM, the TGI [27] was greater than 100 µM and the TGI [28] was greater than 100 µM. For the same molecule, the TGI [31] was greater than 100 µM, the TGI [32] was greater than 100 µM and the TGI [33] was greater than 100 µM. The TGI [34] was greater than 100 µM, the TGI [57] was greater than 100 µM and the TGI [35] was greater than 100 µM. It also gave a TGI [36] greater than 100 µM, a TGI [37] greater than 100 µM and a TGI [38] greater than 100 µM. It also gave a TGI [39] greater than 100 µM, a TGI [40] greater than 100 µM and a TGI [41] greater than 100 µM. The TGI [43] was greater than 100 µM, the TGI [44] was greater than 100 µM and the TGI [46] was greater than 100 µM. For the same molecule, the TGI [48] was greater than 100 µM, the TGI [49] was greater than 100 µM and the TGI [50] was greater than 100 µM. It also gave a TGI [51] greater than 100 µM and a TGI [52] greater than 100 µM.

For O=C(Nc1cccc(F)c1)c1cc2ccc(O)cc2oc1=Nc1cccc(F)c1, the TGI [1] was greater than 100 µM, the TGI [53] was greater than 100 µM and the TGI [2] was greater than 100 µM. It also gave a TGI [3] greater than 100 µM, a TGI [4] of 10.1 µM and a TGI [5] of 34.3 µM. For the same molecule, the TGI [6] was greater than 100 µM, the TGI [7] was 14.7 µM and the TGI [8] was 74.5 µM. The TGI [9] was greater than 100 µM, the TGI [59] was 60.1 µM and the TGI [10] was 42.2 µM. The TGI [11] was greater than 100 µM, the TGI [12] was greater than 100 µM and the TGI [14] was greater than 100 µM. The TGI [15] was greater than 100 µM, the TGI [16] was greater than 100 µM and the TGI [17] was greater than 100 µM. It also gave a TGI [18] of 32.4 µM, a TGI [19] greater than 100 µM and a TGI [20] greater than 100 µM. For the same molecule, the TGI [21] was 5.73 µM, the TGI [22] was greater than 100 µM and the TGI [55] was 84 µM. For the same molecule, the TGI [23] was 50.8 µM, the TGI [24] was greater than 100 µM and the TGI [25] was 6.12 µM. The TGI [26] was greater than 100 µM, the TGI [27] was 26.3 µM and the TGI [28] was greater than 100 µM. For the same molecule, the TGI [29] was greater than 100 µM, the TGI [30] was greater than 100 µM and the TGI [31] was greater than 100 µM. It also gave a TGI [32] greater than 100 µM, a TGI [33] greater than 100 µM and a TGI [34] greater than 100 µM. It also gave a TGI [57] greater than 100 µM, a TGI [35] greater than 100 µM and a TGI [36] of 13 µM. The TGI [37] was greater than 100 µM, the TGI [58] was greater than 100 µM and the TGI [38] was greater than 100 µM. For the same molecule, the TGI [39] was greater than 100 µM, the TGI [40] was greater than 100 µM and the TGI [42] was 6.72 µM. For the same molecule, the TGI [44] was greater than 100 µM, the TGI [45] was 6.32 µM and the TGI [47] was 9.35 µM. For the same molecule, the TGI [48] was greater than 100 µM, the TGI [49] was greater than 100 µM and the TGI [50] was greater than 100 µM. It also gave a TGI [51] greater than 100 µM and a TGI [52] greater than 100 µM.
